Results from patent US20090105278A1, “Selective inhibitors of human corticosteroid syntheses” (Universitat Des Saarlandes, priority 2004, published 2009).
Where a name gives a salt, the structure may show the parent alone. Read-outs that look alike come from different tables or passages of the source.

How the values were obtained:
human placental CYP19 = molecular target: T1, human placental CYP19 (Homo sapiens, UniProt P11511); assay: IC50 of CYP19 (human placental microsomes); format: biochemical; settings: human placental CYP19; testosterone substrate 2.5 μM
T1 construct: The enzyme was obtained from the microsome fraction of fresh human placenta; from tissue; host or cells: human placenta, microsomal fraction
T1 sequence (P11511 1-503): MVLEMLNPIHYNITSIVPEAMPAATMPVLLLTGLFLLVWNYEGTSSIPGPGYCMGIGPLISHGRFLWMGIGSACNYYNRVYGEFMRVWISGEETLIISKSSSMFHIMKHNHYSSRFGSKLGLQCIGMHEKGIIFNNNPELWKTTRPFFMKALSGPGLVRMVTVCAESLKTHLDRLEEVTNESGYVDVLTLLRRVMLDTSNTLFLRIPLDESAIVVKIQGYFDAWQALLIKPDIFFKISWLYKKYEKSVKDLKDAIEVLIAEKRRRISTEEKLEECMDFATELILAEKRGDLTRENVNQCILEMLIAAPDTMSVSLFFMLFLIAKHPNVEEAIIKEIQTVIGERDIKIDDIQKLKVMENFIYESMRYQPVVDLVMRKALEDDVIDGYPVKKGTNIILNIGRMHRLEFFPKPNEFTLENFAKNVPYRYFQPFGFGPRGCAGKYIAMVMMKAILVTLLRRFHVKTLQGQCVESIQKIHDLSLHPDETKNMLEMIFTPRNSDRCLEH
Protocol: The isolated microsomes were suspended in a minimum volume of phosphate buffer (0.05 M; pH 7.4; […]). In addition, DTT (10 mM) and EDTA (1 mM) were added to protect the enzyme from degradation reactions.
[…] […] The compounds to be tested were dissolved in DMSO and diluted with buffer to the desired concentration. The final DMSO concentration of the control and inhibitor incubations was about 20%. Each vessel was preincubated in a water bath at 30° C. for 5 min. The reaction was started by adding the microsomal protein (0.1 mg). The total volume of each mixture was 200 μl. After 14 min, the reaction was quenched by adding 200 μl of ice cold 1 mM HgCl2 solution. Two hundred microliters of a 2% aqueous suspension of dextran-coated charcoal, DCC) was added for absorbing the steroids, and the vessels were shaken for 20 min. Thereafter, the charcoal was centrifuged off at 1500 g for 5 min. The radioactive water present in the supernatant (^3H2O) was assayed by scintillation measurement using an LKB-Wallac beta counter. The calculation of the IC50 values was effected by a semilogarithmic plot of the percent inhibition against the inhibitor concentration.

human CYP11B2 [1] = molecular target: T2, human CYP11B2 (Homo sapiens, UniProt P19099); assay: Screening test in transgenic fission yeast (S. pombe PE1) expressing human CYP11B2; format: cell-based; design: expressed in transfected cells; settings: for inhibition at 0.5 µM: read-out: % Inhibition human hCYP11B2
T2 sequence (P19099 25-503): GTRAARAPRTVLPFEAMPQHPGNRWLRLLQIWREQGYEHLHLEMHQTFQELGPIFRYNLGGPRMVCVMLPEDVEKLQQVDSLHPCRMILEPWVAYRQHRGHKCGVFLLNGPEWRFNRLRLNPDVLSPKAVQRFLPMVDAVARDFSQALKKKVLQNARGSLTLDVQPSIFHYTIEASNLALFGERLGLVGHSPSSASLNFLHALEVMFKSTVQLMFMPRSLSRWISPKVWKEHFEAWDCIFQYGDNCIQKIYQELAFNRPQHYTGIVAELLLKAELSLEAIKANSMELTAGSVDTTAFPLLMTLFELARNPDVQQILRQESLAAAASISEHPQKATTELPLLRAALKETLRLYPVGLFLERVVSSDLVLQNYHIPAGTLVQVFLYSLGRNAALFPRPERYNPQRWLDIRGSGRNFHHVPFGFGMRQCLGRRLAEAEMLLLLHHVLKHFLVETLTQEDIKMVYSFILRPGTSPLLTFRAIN
In short: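 Deoxycorticosterone conversion to corticosterone, 18-hydroxycorticosterone and aldosterone assessed after EtOAc extraction by HPTLC with 14C phosphorimaging. Conversion rate calculated from quantified steroid spots.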

human CYP11B2 [2] = molecular target: T2, human CYP11B2; assay: V79 MZh 11B2 cells inhibition test; format: cell-based; design: expressed in transfected cells; host or cells: V79 MZh11B2 (Chinese hamster lung fibroblasts); settings: hamster fibroblasts which express human CYP11B2; deoxycorticosterone substrate 100 nM; read-out: IC50 V79 11B2 hCYP11B2
Protocol: Both cell lines were cultured in DMEM^+ containing […] and the antibiotics penicillin and streptomycin (10%) for protection from bacterial contamination. The cells were passaged every 2-3 days after treatment with trypsin/EDTA because the doubling rate was 1-2 days depending on the number of cells. […] When there was further need, freshly thawed cells were employed.
Thereafter, the plate was stored at 37° C. and […] in a CO2 incubator. The V79 MZh 11B1 cells were incubated for 120 min, and the V79 MZh 11B2 cells were incubated for 40 min. Controls without inhibitor were treated in the same way. The enzyme reactions were quenched by extracting the supernatant with 500 μl of EtOAc. The samples were centrifuged (10,000 g, 2 min), the solvent was removed and evaporated.
For V79 MZh11B2, the conversion rate was obtained in accordance with equation 3: […]
It was calculated by determining the percent inhibition for at least 3 different inhibitor concentrations, which must all be in the linear range of the sigmoidal IC50 curve (log C/% inhibition).
The calculation was effected by linear regression. The values determined were used only if they formed a straight line with a reliability of […].
The plate was developed twice with the mobile solvent chloroform:methanol:water (300:20:1). Unlabeled 11-deoxycorticosterone and corticosterone were applied as a reference for the CYP11B1 reaction. For the CYP11B2 reaction, 11-deoxycorticosterone, corticosterone, 18-hydroxycorticosterone and aldosterone were used as references. The detection of the unlabeled references was effected at 260 nm. Subsequently, imaging plates (BAS MS2340, for ^14C samples, Raytest, Straubenhardt, Germany) were exposed to the HPTLC plates for 48 h. The imaging plates were scanned with the phosphoimager system Fuji FLA 3000 (Raytest, Straubenhardt, Germany), and the steroids were quantified.

[3] = S. pombe cells which express human CYP11B2, deoxycorticosterone substrate 100 nM, inhibitor 500 nM

IC50 (human placental CYP19) [nM]	inhibition at 0.5 µM (human CYP11B2 [1]; [3]) [%]	IC50 (human CYP11B2 [2]) [nM]	Compound	melting point [°C]	inhibition at 0.5 µM (human CYP11B2 [1]) [%]	% Inhibition human hCYP11B2 (human CYP11B2 [1]; [3]) [%]
4000	53	878	COc1ccc2c(c1)CCC/C2=C/c1cccnc1.Cl [Compound 13b, 3-[(Z)-(6-Methoxy-3,4-dihydronaphthalene-1(2H)-ylidene)methyl]pyridine Hydrochloride]	151	–	–
1940	91	26.1	Fc1ccc2c(c1)CC/C2=C/c1cccc2cnccc12 [Compound 30b, 5-[(Z)-(5-Fluoro-2,3-dihydro-1H-indane-1-ylidene)methyl]isoquinoline Hydrochloride]	–	–	–
4310	79	34.2	COc1ccc2c(c1)CC/C2=C\c1cccnc1 [Compound 11a, 3-[(E)-(5-Methoxy-2,3-dihydro-1H-indane-1-ylidene)methyl]pyridine Hydrochloride]	–	–	–
7450	72	27.4	Fc1ccc2c(c1)CC/C2=C\c1cncnc1 [Compound 28a, 5-[(E)-(5-Fluoro-2,3-dihydro-1H-indane-1-ylidene)methyl]pyrimidine Hydrochloride]	–	–	–
1810	84	20.9	Fc1cccc2c1CC/C2=C\c1cccnc1 [Compound 24a, 3-[(E)-(4-Fluoro-2,3-dihydro-1H-indane-1-ylidene)methyl]pyridine Hydrochloride]	–	–	–

The next lines start with the compound.

Compound	IC50 (human placental CYP19) [nM]	inhibition at 0.5 µM (human CYP11B2 [1]; [3]) [%]	IC50 (human CYP11B2 [2]) [nM]	melting point [°C]	inhibition at 0.5 µM (human CYP11B2 [1]) [%]	% Inhibition human hCYP11B2 (human CYP11B2 [1]; [3]) [%]
C(=C1/CCCc2ccccc21)/c1cccnc1.Cl [Compound 3a, 3-[(E)-3,4-Dihydronaphthalene-1(2H)-ylidenemethyl]pyridine Hydrochloride]	6580	70	21.6	209	–	–
Cl.Clc1ccc2c(c1)CC/C2=C\c1cnc[nH]1 [Compound 48a, 5-[(E)-(5-Chloro-2,3-dihydro-1H-indene-1-ylidene)methyl]-1H-imidazolium chloride]	330	79	–	238	–	–
C(=C1\CCCc2ccccc21)/c1cccnc1.Cl [Compound 3b, 3-[(Z)-3,4-Dihydronaphthalene-1(2H)-ylidenemethyl]pyridine Hydrochloride]	3790	68	141	206	–	–
C(=C1/CCCc2ccccc21)/c1cnc[nH]1 [Compound 41a, 5-[(E)-3,4-Dihydronaphth-1(2H)-ylidenemethyl]-1H-imidazole]	226	80	–	136 to 138	–	–
C(=C1/CCc2ccccc21)/c1cccnc1 [Compound 1a, 3-[(E)-2,3-Dihydro-1H-indane-1-ylidenemethyl]pyridine Hydrochloride]	2040	82	10.6	–	–	–
Clc1ccc2c(c1)CC/C2=C\c1ccncc1 [Compound 8a, 4-[(E)-(5-Chloro-2,3-dihydro-1H-indane-1-ylidene)methyl]pyridine Hydrochloride]	5430	–	1520	–	38	–
Clc1ccc2c(c1)CC/C2=C/c1cccnc1 [Compound 7b, 3-[(Z)-(5-Chloro-2,3-dihydro-1H-indane-1-ylidene)methyl]pyridine Hydrochloride]	4050	68	72.7	–	–	–
Brc1ccc2c(c1)CC/C2=C\c1cnc[nH]1.Cl [Compound 49a, 5-[(E)-(5-Bromo-2,3-dihydro-1H-indene-1-ylidene)methyl]-1H-imidazolium chloride]	–	68	92.8	228	–	–
5-[(E)-(6-Chloro-3,4-dihydronaphth-1(2H)-ylidene)methyl]-1H-imidazolium chloride [Compound 46a]	120	–	47.3	–	–	48
Fc1ccc2c(c1)CC/C2=C\c1ccncc1 [Compound 6a, 4-[(E)-(5-Fluoro-2,3-dihydro-1H-indane-1-ylidene)methyl]pyridine Hydrochloride]	1550	–	1100	–	37	–
